{
  "source": "PubChem BioAssay AID1996",
  "data": [
    {"details": "buffer; pH 7.4; 200.0 µM", "units": {"solubility kinetic": "µg/mL"}, "values": [
      {"compound": "Cc1ccccc1N1CCN(S(=O)(=O)c2cccs2)CC1", "solubility kinetic": 4},
      {"compound": "COc1ccc(C(=O)Nc2cccc3c2CCCC3)cc1", "solubility kinetic": "< 0.6"},
      {"compound": "COc1cccc(NC(=S)Nc2ccc(F)cc2)c1", "solubility kinetic": 28.7},
      {"compound": "CSCCC(NC(=O)c1ccco1)C(=O)Nc1ccncc1", "note": "(stereo not given)", "solubility kinetic": "> 47.9"},
      {"compound": "Cc1ccc(C(C)C)cc1OCC(=O)NC1CCCCCCC1", "solubility kinetic": "< 0.7"},
      {"compound": "O=c1c2ccccc2[nH]c2ccccc12", "solubility kinetic": 4.7},
      {"compound": "Cc1sc2nc(-c3cccnc3)[nH]c(=O)c2c1-c1ccccc1", "solubility kinetic": 2.1},
      {"compound": "CN1C(=O)c2ccccc2C(O)c2ccccc21", "note": "(stereo not given)", "solubility kinetic": 31.8},
      {"compound": "Cc1ccc(C(=O)/C=C/N(C)C)cn1", "solubility kinetic": 26.6},
      {"compound": "O=C(NCCCNC(=O)c1cnccn1)c1cccc(F)c1", "solubility kinetic": 40.2},
      {"compound": "O=C(COC(=O)[C@@H]1CC(O)CN1S(=O)(=O)c1ccc2c(c1)OCCO2)Nc1cc(F)ccc1F", "note": "(stereo not given in full)", "solubility kinetic": "> 74.8"},
      {"compound": "O=C(CN1C(=O)c2ccccc2C1=O)Nc1cccc(O)c1", "solubility kinetic": 37},
      {"compound": "COc1cccc(C(=O)OCC(=O)NCc2ccc3c(c2)OCO3)c1OC", "solubility kinetic": "> 56"},
      {"compound": "O=C(CSc1ccccn1)Nc1ccc2c(c1)OCCO2", "solubility kinetic": "> 45.4"},
      {"compound": "Cc1oc(C(C)(C)C)c(CN2CCOCC2)c1C(=O)O.Cl", "solubility kinetic": "> 47.7"},
      {"compound": "CC(C)CC1CCCCC1OC(=O)CN1CCCCC1", "note": "(stereo not given)", "solubility kinetic": 3.7},
      {"compound": "COc1ccc(F)cc1COc1nc(C)nc2ccccc12", "solubility kinetic": 28.3},
      {"compound": "C/C(=N/O)c1ccc2ccc3ccccc3c2c1", "solubility kinetic": 0.6},
      {"compound": "O=C(CN1C(=O)NC2(CCCC2)C1=O)NCc1ccc(Cl)cc1", "solubility kinetic": "> 50.4"},
      {"compound": "Cn1c(/C(C#N)=C(\\O)c2cccc(F)c2)nc2ccccc21", "solubility kinetic": 0.3},
      {"compound": "CC(C)(C)C(=O)N1CCN(c2ccc([N+](=O)[O-])cc2-n2cccc2)CC1", "solubility kinetic": 1.4},
      {"compound": "CC(C)(C)c1ccc(C(=O)NC(=S)NCc2ccco2)cc1", "solubility kinetic": 0.6},
      {"compound": "COc1ccc(C2(O)C(=O)Nc3ccccc32)cc1", "note": "(stereo not given)", "solubility kinetic": "> 38.3"},
      {"compound": "Cc1cccc(C(C)C)c1NS(=O)(=O)c1cn(C)nc1C", "solubility kinetic": "> 46.1"},
      {"compound": "NS(=O)(=O)c1ccc(NC(=O)c2ccc3c(c2)CCCC3)cc1", "solubility kinetic": "< 0.4"},
      {"compound": "CSc1nc2c(C)c(C)c(C)c(C)c2[nH]1", "solubility kinetic": 3.2},
      {"compound": "Cc1cccc2c3c([nH]c12)CCN(C)C3", "solubility kinetic": "> 30"},
      {"compound": "Cc1nc(S/C(C(=O)O)=C2/C(=O)Nc3ccccc32)n[nH]1", "solubility kinetic": "> 45.3"},
      {"compound": "COC(=O)CSc1nccc(-c2ccc(F)cc2)c1C#N", "solubility kinetic": "< 0.3"},
      {"compound": "CC(=O)OC(C(=O)Nc1nccs1)c1ccccc1", "note": "(stereo not given)", "solubility kinetic": "> 41.4"},
      {"compound": "Cc1cccc(OCC(=O)NCCNC(=O)c2ccco2)c1", "solubility kinetic": 45},
      {"compound": "C[N+](C)(C)Cc1ccccc1.[Cl-]", "solubility kinetic": "> 27.9"},
      {"compound": "CC(=O)NC(CC(=O)O)c1ccccc1", "note": "(stereo not given)", "solubility kinetic": "> 31.1"},
      {"compound": "CC(=O)Nc1cccc(Oc2ccc3c(c2)C(=O)NC3=O)c1", "solubility kinetic": "> 44.4"},
      {"compound": "Cc1ccc(C(=O)Nc2ccc(Nc3ccccc3)cc2)cc1C", "solubility kinetic": 2.3},
      {"compound": "CCSc1ncc(Cl)c(C(=O)Nc2ccccc2F)n1", "solubility kinetic": 0.5},
      {"compound": "COCCNC(=O)/C(C#N)=C/c1ccc(OCc2ccc(F)cc2)cc1", "solubility kinetic": 3.4},
      {"compound": "CC(=O)c1cccc(NC(=O)C2=CN3CCS(=O)(=O)N=C3C=C2)c1", "solubility kinetic": 48.1},
      {"compound": "O=C(Nc1ccc2ccccc2c1)c1ccc2[nH]c(=O)c(=O)[nH]c2c1", "solubility kinetic": 4.3},
      {"compound": "CC(=O)Oc1ccc(C(=O)Nc2cccc(C(=O)NC(C)(C)C)c2)cc1", "solubility kinetic": 45},
      {"compound": "C=CCn1cc(C=C2C(=O)NC(=O)NC2=O)c2ccccc21", "solubility kinetic": 3.6},
      {"compound": "COc1ccccc1CNC(=S)NCc1ccc(Cl)cc1", "solubility kinetic": 11.8},
      {"compound": "C=CCc1c(C)c(C#N)c2nc3ccccc3n2c1N1CCCCC1", "solubility kinetic": "< 0.2"},
      {"compound": "CCN(CC(=O)Nc1ccccc1OC)C(=O)CC1CCCC1", "solubility kinetic": "> 47.8"},
      {"compound": "O=C(O)CC1(CC(=O)Nc2ccc3c(c2)C(=O)OC3)CCCCC1", "solubility kinetic": "> 49.7"},
      {"compound": "Cc1ccc(C)c(S(=O)(=O)NCCCN2CCOCC2)c1", "solubility kinetic": "> 46.9"},
      {"compound": "NC(=S)C(c1ccccc1)c1ncc(C(F)(F)F)cc1Cl", "note": "(stereo not given)", "solubility kinetic": 41.7},
      {"compound": "Cc1ccc(NC(=O)Cn2c([N+](=O)[O-])cnc2C)cc1", "solubility kinetic": "> 41.1"},
      {"compound": "O=C(O)c1ccc(-n2cc(C(=O)c3ccccc3O)cn2)cc1", "solubility kinetic": "> 46.2"},
      {"compound": "Cc1nc2sc(C(N)=O)c(N)c2c2c1CCCC2", "solubility kinetic": 9.3},
      {"compound": "COc1ccc(S(=O)(=O)Nc2noc3ccccc23)cc1OC", "solubility kinetic": "> 50.2"},
      {"compound": "Cc1[nH]c(=O)[nH]c(=O)c1NC(=O)c1ccc(OC(C)C)cc1", "solubility kinetic": "> 45.5"},
      {"compound": "Cc1cccc(NC(=O)COC(=O)c2cccs2)c1C", "solubility kinetic": 1.8},
      {"compound": "Cc1cc(C(F)(F)F)c2c(N)c(C(=O)NC3CC3)sc2n1", "solubility kinetic": "> 47.3"},
      {"compound": "COc1ccccc1NC(=O)CN1CCOCC1", "solubility kinetic": "> 37.5"},
      {"compound": "CC(C)c1ccccc1NC(=O)CN1C(=O)c2ccccc2C1=O", "solubility kinetic": 1.6},
      {"compound": "COc1ccc(C(=O)Cn2cnc3ccccc3c2=O)cc1OC", "solubility kinetic": 42.3},
      {"compound": "O=C(CCCN1C(=O)/C(=C\\c2ccccc2)SC1=S)Nc1ccccc1O", "solubility kinetic": "< 0.4"},
      {"compound": "Cn1cccc1/C=C1/C(=O)NC(=O)N(Cc2ccc(F)cc2)C1=O", "solubility kinetic": 5.4},
      {"compound": "CCOC(=O)C1CCCN(C(=O)c2cc3ccccc3oc2=O)C1", "note": "(stereo not given)", "solubility kinetic": 38.8}
    ]}
  ]
}
